From patent US20050153943A1, “Methods of simultaneously treating mucositis and fungal infection” (priority 2002, published 2005)

How the values were obtained:
Assay in all cases: Fungal growth on SABHI agar containing CMT (Example 38)
Type in all cases: cell-based
[1] = system: Aspergillus fumigatus ATCC 1022; conditions: for Growth at 25 μg/ml compared to control at 24 hrs incubation / Growth at 25 μg/ml compared to control at 48 hours: 30° C., growth grade; for Anti-fungal activity (summary in words): 25 μg/ml agar, Example 38
Method: (§1) The following fungi were inoculated onto potato dextrose agar (PDA) from stock cultures and incubated aerobically at 30° C.: Aspergillus [NT] 1022, Penicillium sp. (laboratory isolate), Candida albicans, ATCC 14053, and Rhizopus sp. […] The conidia were suspended in 0.9% saline and the turbidity was adjusted to match a 0.5 MacFarland standard (equivalent to approximately 1.5×10^8 cells). Candida albicans was suspended in saline and adjusted to 0.5 MacFarland in a similar manner. These suspensions were diluted 1:100 in sterile 0.9% saline. SABHI Agar (Difco) pH 7.0 was prepared in 100 ml amounts and sterilized at 121° C. for 15 min. […] SABHI Agar plates of each CMT and SAHBI agar without CMT using dimethylsulphoxide (DMSO) as a control were inoculated with 10 μl of conidia suspension of Aspergillus fumigatus, Penicillium sp. and Rhizopus sp. and 10 μl suspension of Candida albicans prepared as described above. The plates were then incubated aerobically for 24 hour and for 48 hours at 30° C. The results are set forth in Table 1 (24 hr. incubation) and Table 2 (48 hr. incubation). [table]

[2] = system: Candida albicans, ATCC 14053; conditions: for Growth at 25 μg/ml compared to control at 24 hrs incubation / Growth at 25 μg/ml compared to control at 48 hours: 30° C., growth grade
Method: as §1

[3] = system: Penicillium sp. (laboratory isolate); conditions: for Growth at 25 μg/ml compared to control at 24 hrs incubation / Growth at 25 μg/ml compared to control at 48 hours: 30° C., growth grade; for Anti-fungal activity (summary in words): 25 μg/ml agar, Example 38
Method: as §1

Rhizopus sp. = conditions: 25 μg/ml, 30° C., growth grade
Method: as §1

Compound: 4-Dedimethylamino-7-dimethylamino-6-demethyl-6-deoxy-9-ethoxythiocarbonylthio-tetracycline sulfate [Example 7]
- Growth at 25 μg/ml compared to control at 24 hrs incubation [1]: 0 (complete inhibition of growth.)
- Growth at 25 μg/ml compared to control at 48 hours [1]: 4 (Level of growth in the absence of anti-fungal agent (control).)
- Growth at 25 μg/ml compared to control at 24 hrs incubation [2]: 0 (complete inhibition of growth.)
- Growth at 25 μg/ml compared to control at 48 hours [2]: 0 (complete inhibition of growth.)
- Growth at 25 μg/ml compared to control at 24 hrs incubation [3]: 3 (25% reduction in growth of colonies compared to control.)
- Growth at 25 μg/ml compared to control at 48 hours [3]: 4 (Level of growth in the absence of anti-fungal agent (control).)
- Growth at 25 μg/ml compared to control at 24 hrs incubation (Rhizopus sp.): 4 (Level of growth in the absence of anti-fungal agent (control).)
- Growth at 25 μg/ml compared to control at 48 hours (Rhizopus sp.): 3 (25% reduction in growth of colonies compared to control.)

Compound: CC1(O)c2c(Cl)ccc(O)c2C(=O)C2=C(O)C3(O)C(=O)C(C(N)=O)=C(O)CC3CC21 (stereo not drawn) [COL 4, 7-chloro-4-dedimethylaminotetracycline]
- Anti-fungal activity (summary in words) [1]: demonstrated activity
- Anti-fungal activity (summary in words) [3]: demonstrated activity

Compound: CC1(O)c2cccc(O)c2C(=O)C2=C(O)C3C(=O)C(C(N)=O)=C(O)CC3CC21 (stereo not drawn) [COL 7, 4-dedimethylamino-12α-deoxytetracycline]
- Anti-fungal activity (summary in words) ([2]; 25 μg/ml agar, Example 38): strong activity

Compound: NC(=O)C1=C(O)CC2CC3Cc4c([N+](=O)[O-])ccc(O)c4C(=O)C3=C(O)C2(O)C1=O (stereo not drawn) [COL 302, 7-nitro-6-demethyl-6-deoxy-4-dedimethylaminotetracycline]
- Growth at 25 μg/ml compared to control at 24 hrs incubation [1]: 0 (complete inhibition of growth.)
- Growth at 25 μg/ml compared to control at 48 hours [1]: 4 (Level of growth in the absence of anti-fungal agent (control).)
- Growth at 25 μg/ml compared to control at 24 hrs incubation [2]: 4 (Level of growth in the absence of anti-fungal agent (control).)
- Growth at 25 μg/ml compared to control at 48 hours [2]: 4 (Level of growth in the absence of anti-fungal agent (control).)
- Growth at 25 μg/ml compared to control at 24 hrs incubation [3]: 3 (25% reduction in growth of colonies compared to control.)
- Growth at 25 μg/ml compared to control at 48 hours [3]: 4 (Level of growth in the absence of anti-fungal agent (control).)
- Growth at 25 μg/ml compared to control at 24 hrs incubation (Rhizopus sp.): 4 (Level of growth in the absence of anti-fungal agent (control).)
- Growth at 25 μg/ml compared to control at 48 hours (Rhizopus sp.): 4 (Level of growth in the absence of anti-fungal agent (control).)

Compound: NC(=O)C1=C(O)CC2CC3Cc4ccc([N+](=O)[O-])c(O)c4C(=O)C3=C(O)C2(O)C1=O (stereo not drawn) [COL 303, 9-nitro-6-demethyl-6-deoxy-4-dedimethylaminotetracycline]
- Growth at 25 μg/ml compared to control at 48 hours [1]: 4 (Level of growth in the absence of anti-fungal agent (control).)
- Growth at 25 μg/ml compared to control at 24 hrs incubation [2]: 3 (25% reduction in growth of colonies compared to control.)
- Growth at 25 μg/ml compared to control at 48 hours [2]: 4 (Level of growth in the absence of anti-fungal agent (control).)
- Growth at 25 μg/ml compared to control at 24 hrs incubation [3]: 3 (25% reduction in growth of colonies compared to control.)
- Growth at 25 μg/ml compared to control at 48 hours [3]: 4 (Level of growth in the absence of anti-fungal agent (control).)
- Growth at 25 μg/ml compared to control at 24 hrs incubation (Rhizopus sp.): 4 (Level of growth in the absence of anti-fungal agent (control).)
- Growth at 25 μg/ml compared to control at 48 hours (Rhizopus sp.): 4 (Level of growth in the absence of anti-fungal agent (control).)

Compound: CN(C)c1ccc2c(c1O)C(=O)C1=C(O)C3(O)C(=O)C(C(N)=O)=C(O)CC3CC1C2 (stereo not drawn) [COL 306, 9-dimethylamino-6-demethyl-6-deoxy-4-dedimethylaminotetracycline]
- Growth at 25 μg/ml compared to control at 24 hrs incubation [1]: 1 (75% reduction in growth in colonies compared to control.)
- Growth at 25 μg/ml compared to control at 48 hours [1]: 4 (Level of growth in the absence of anti-fungal agent (control).)
- Growth at 25 μg/ml compared to control at 24 hrs incubation [2]: 3 (25% reduction in growth of colonies compared to control.)
- Growth at 25 μg/ml compared to control at 48 hours [2]: 4 (Level of growth in the absence of anti-fungal agent (control).)
- Growth at 25 μg/ml compared to control at 24 hrs incubation [3]: 3 (25% reduction in growth of colonies compared to control.)
- Growth at 25 μg/ml compared to control at 48 hours [3]: 4 (Level of growth in the absence of anti-fungal agent (control).)
- Growth at 25 μg/ml compared to control at 24 hrs incubation (Rhizopus sp.): 4 (Level of growth in the absence of anti-fungal agent (control).)
- Growth at 25 μg/ml compared to control at 48 hours (Rhizopus sp.): 4 (Level of growth in the absence of anti-fungal agent (control).)

Compound: NC(=O)C1=C(O)CC2CC3Cc4ccc(N)c(O)c4C(=O)C3=C(O)C2(O)C1=O (stereo not drawn) [COL 308, 9-amino-6-demethyl-6-deoxy-4-dedimethylaminotetracycline]
- Anti-fungal activity (summary in words) [1]: demonstrated activity
- Growth at 25 μg/ml compared to control at 24 hrs incubation [1]: 0 (complete inhibition of growth.)
- Growth at 25 μg/ml compared to control at 48 hours [1]: 1 (75% reduction in growth in colonies compared to control.)
- Growth at 25 μg/ml compared to control at 24 hrs incubation [2]: 4 (Level of growth in the absence of anti-fungal agent (control).)
- Growth at 25 μg/ml compared to control at 48 hours [2]: 4 (Level of growth in the absence of anti-fungal agent (control).)
- Anti-fungal activity (summary in words) [3]: demonstrated activity
- Growth at 25 μg/ml compared to control at 24 hrs incubation [3]: 0 (complete inhibition of growth.)
- Growth at 25 μg/ml compared to control at 48 hours [3]: 0 (complete inhibition of growth.)
- Growth at 25 μg/ml compared to control at 24 hrs incubation (Rhizopus sp.): 4 (Level of growth in the absence of anti-fungal agent (control).)
- Growth at 25 μg/ml compared to control at 48 hours (Rhizopus sp.): 4 (Level of growth in the absence of anti-fungal agent (control).)

Compound: CN(C)CC(=O)Nc1ccc2c(c1O)C(=O)C1=C(O)C3(O)C(=O)C(C(N)=O)=C(O)CC3CC1C2 (stereo not drawn) [COL 309, 9-dimethylaminoacetamido-6-demethyl-6-deoxy-4-dedimethylaminotetracycline]
- Growth at 25 μg/ml compared to control at 48 hours [1]: 4 (Level of growth in the absence of anti-fungal agent (control).)
- Growth at 25 μg/ml compared to control at 24 hrs incubation [2]: 4 (Level of growth in the absence of anti-fungal agent (control).)
- Growth at 25 μg/ml compared to control at 48 hours [2]: 4 (Level of growth in the absence of anti-fungal agent (control).)
- Growth at 25 μg/ml compared to control at 24 hrs incubation [3]: 3 (25% reduction in growth of colonies compared to control.)
- Growth at 25 μg/ml compared to control at 48 hours [3]: 4 (Level of growth in the absence of anti-fungal agent (control).)
- Growth at 25 μg/ml compared to control at 24 hrs incubation (Rhizopus sp.): 4 (Level of growth in the absence of anti-fungal agent (control).)
- Growth at 25 μg/ml compared to control at 48 hours (Rhizopus sp.): 4 (Level of growth in the absence of anti-fungal agent (control).)
